EC50 and CC50 data for 24 molecules are collected here from US9884818B2, “Sulphamoylpyrrolamide derivatives and the use thereof as medicaments for the treatment of hepatitis B” (Janssen Sciences Ireland UC, priority 2013, dated 2018).

The test system of series [1] is HBV. Nature of the series: Anti-HBV activity, HepG2.2.15 stable transfected cell line, HBV DNA from secreted virions by realtime PCR. The settings on record: Hepatitis B virus, HepG2.2.15, 144 h, HepG2.2.15 cells, 6 days of treatment, HBV DNA from secreted virions; read-out: HepG2 2.15 EC50. The series is classed as cell-based.
Series [2] concerns HBV. Nature of the series: Anti-HBV activity, HepG2.117 inducibly HBV producing cell line (Tet-off), intracellular HBV DNA by realtime PCR. The series is classed as cell-based. The settings on record: Hepatitis B virus, HepG2.117, 72 h, HepG2.117 cells, 3 days of treatment, intracellular HBV DNA; read-out: HepG2 117 EC50.
A short description of series [3]: Cytotoxicity in HepG2 cells, Resazurin viability assay. The settings on record: human, HepG2 cells, HepG2 4 days CC50 (μM), incubated for 4 days, Resazurin assay. In general terms: Resazurin is reduced to fluorescent resorufin, in cell work by metabolically active cells.

Consider `CCC(C)(NS(=O)(=O)c1cc(C(=O)Nc2ccc(F)c(Cl)c2F)n(C)c1)C(F)(F)F` (stereo not drawn) [Compound 257, N-(3-chloro-2,4-difluoro-phenyl)-1-methyl-4-{[1-methyl-1-(trifluoro-methyl)propyl]sulfamoyl}-1H-pyrrole-2-carboxamide], for which the EC50 in the series on HBV [1] is 80 nM; in the series with HBV [2] it was 90 nM. The molecule further registered a CC50 at 4 days in series [3] of over 25 µM.
With `Cn1cc(S(=O)(=O)NC2(C(F)(F)F)CCOCC2)cc1C(=O)Nc1ccc(F)c(Cl)c1F` [Compound 258, N-(3-chloro-2,4-difluoro-phenyl)-1-methyl-4-[[1-(trifluoromethyl)-tetrahydropyran-4-yl]sulfamoyl]-1H-pyrrole-2-carboxamide], the EC50 in the series with HBV [1] was 30 nM; in the series with HBV [2] it was 20 nM. Moreover, the CC50 at 4 days in series [3] was over 25 µM.
Regarding `CCC(CC)(NS(=O)(=O)c1cc(C(=O)Nc2ccc(F)c(Cl)c2F)n(C)c1)C(F)(F)F` [Compound 259, N-(3-chloro-2,4-difluoro-phenyl)-4-[[1-ethyl-1-(trifluoromethyl)-propyl]sulfamoyl]-1-methyl-1H-pyrrole-2-carboxamide], the EC50 in the series with HBV [1] and with HBV [2] was 50 nM throughout. Moreover, in series [3], the CC50 at 4 days is over 25 µM.
Turning to `CC(CC(F)(F)F)NS(=O)(=O)c1cc(C(=O)Nc2ccc(F)c(Cl)c2F)n(C)c1` (stereo not drawn) [Compound 260, N-(3-chloro-2,4-difluoro-phenyl)-1-methyl-4-[(3,3,3-trifluoro-1-methylpropyl)sulfamoyl]-1H-pyrrole-2-carboxamide], the EC50 with HBV [1] is 70 nM; with HBV [2], 90 nM. The CC50 at 4 days in series [3] is over 25 µM.
With `Cn1cc(S(=O)(=O)NC(C)(C)CF)cc1C(=O)Nc1ccc(F)c(Cl)c1F` [Compound 261], the values for the concentration giving a half-maximal response (EC50) in the series with HBV [1] and in the series on HBV [2] were 40 nM and 130 nM, respectively. The molecule further displayed a CC50 at 4 days in series [3] of over 25 µM.
In the case of `CC[C@H](NS(=O)(=O)c1cc(C(=O)Nc2ccc(F)c(Cl)c2F)n(C)c1)C(F)(F)F` [Compound 262, N-(3-chloro-2,4-difluoro-phenyl)-1-methyl-4-{[(1S)-1-(trifluoro-methyl)propyl]sulfamoyl}-1H-pyrrole-2-carboxamide], the EC50 with HBV [1] and in the series on HBV [2] was 20 nM each time. This molecule also registered a half-maximal cytotoxic concentration (CC50) at 4 days in series [3] of over 25 µM.
`Cn1cc(S(=O)(=O)NC2(C(F)(F)F)CCC2)cc1C(=O)Nc1ccc(F)c(Cl)c1F` [Compound 263, N-(3-chloro-2,4-difluoro-phenyl)-1-methyl-4-{[1-(trifluoromethyl)-cyclobutyl]sulfamoyl}-1H-pyrrole-2-carboxamide]: the EC50 in the series on HBV [1] was determined as 5 nM; in the series on HBV [2], 8 nM. Moreover, the CC50 at 4 days in series [3] is over 25 µM.
The like results for `Cn1cc(S(=O)(=O)NC(CF)CF)cc1C(=O)Nc1ccc(F)c(Cl)c1F` [Compound 264, N-(3-chloro-2,4-difluoro-phenyl)-4-{[2-fluoro-1-(fluoromethyl)-ethyl]sulfamoyl}-1-methyl-1H-pyrrole-2-carboxamide] were, in that order, 90 nM, 130 nM and over 25 µM.
The corresponding values for `CC[C@@H](NS(=O)(=O)c1cc(C(=O)Nc2ccc(F)c(Cl)c2F)n(C)c1)C(F)(F)F` [Compound 265, N-(3-chloro-2,4-difluoro-phenyl)-1-methyl-4-{[(1R)-1-(trifluoro-methyl)propyl]sulfamoyl}-1H-pyrrole-2-carboxamide] are 10 nM, 30 nM and over 25 µM.
For `Cn1cc(S(=O)(=O)NC2(C(F)(F)F)CCOC2)cc1C(=O)Nc1ccc(F)c(Cl)c1F` (stereo not drawn) [Compound 266, N-(3-chloro-2,4-difluoro-phenyl)-1-methyl-4-{[3-(trifluoromethyl)-tetrahydrofuran-3-yl]sulfamoyl}-1H-pyrrole-2-carboxamide], the EC50 stood at 20 nM in the series on HBV [1] and 30 nM in the series on HBV [2]. Moreover, the CC50 at 4 days in series [3] was over 25 µM.
Turning to `Cn1cc(S(=O)(=O)NC2(C(F)(F)F)CCC2)c(Cl)c1C(=O)Nc1ccc(F)c(F)c1` [Compound 267, 3-chloro-N-(3,4-difluorophenyl)-1-methyl-4-{[1-(trifluoromethyl)-cyclobutyl]sulfamoyl}-1H-pyrrole-2-carboxamide], the values for the EC50 in the series on HBV [1] and in the series with HBV [2] were 6 nM and 9 nM, respectively. Moreover, the CC50 at 4 days in series [3] was over 25 µM.
The corresponding values for `Cn1cc(S(=O)(=O)NC2(C(F)(F)F)CCC2)c(Cl)c1C(=O)Nc1ccc(F)c(Cl)c1` [Compound 268, 3-chloro-N-(3-chloro-4-fluoro-phenyl)-1-methyl-4-{[1-(trifluoro-methyl)cyclobutyl]sulfamoyl}-1H-pyrrole-2-carboxamide] are 5 nM, 6 nM and over 25 µM.
For `CC(C)NS(=O)(=O)c1cn(C)c(C(=O)Nc2ccc(F)c(C#N)c2)c1Cl` [Compound 269, 3-Chloro-N-(3-cyano-4-fluorophenyl)-1-methyl-4-[(1-methylethyl)sulfamoyl]-1H-pyrrole-2-carboxamide], the EC50 with HBV [1] was determined as 50 nM; with HBV [2], 70 nM. The CC50 at 4 days in series [3] is over 25 µM.
For the molecule `Cn1cc(S(=O)(=O)NC(C)(C)C(F)(F)F)c(Cl)c1C(=O)Nc1ccc(F)c(C#N)c1` [Compound 270, 3-Chloro-N-(3-cyano-4-fluorophenyl)-1-methyl-4-[(2,2,2-trifluoro-1,1-dimethylethyl)sulfamoyl]-1H-pyrrole-2-carboxamide], the EC50 in the series with HBV [1] amounted to 60 nM; with HBV [2], 110 nM. Also, in series [3], the 50% cytotoxic concentration (CC50) at 4 days is over 25 µM.
Turning to `Cn1cc(S(=O)(=O)NC2(C(F)(F)F)CC2)c(Cl)c1C(=O)Nc1ccc(F)c(C#N)c1` [Compound 271, 3-Chloro-N-(3-cyano-4-fluorophenyl)-1-methyl-4-{[1-(trifluoro-methyl)cyclopropyl]sulfamoyl}-1H-pyrrole-2-carboxamide], the 50% effective concentration (EC50) amounted to 9 nM in the series with HBV [1] and 20 nM with HBV [2]. This molecule also registered a CC50 at 4 days in series [3] of over 25 µM.
As to `Cc1c(F)ccc(NC(=O)c2c(Cl)c(S(=O)(=O)N[C@H](C)C(F)(F)F)cn2C)c1C#N` [Compound 272, 3-chloro-N-(2-cyano-4-fluoro-3-methyl-phenyl)-1-methyl-4-[[(1R)-2,2,2-trifluoro-1-methyl-ethyl]sulfamoyl]pyrrole-2-carboxamide], the EC50 was 300 nM with HBV [1] and 760 nM in the series with HBV [2]. Also, the CC50 at 4 days in series [3] was over 25 µM.
As for `C[C@@H](NS(=O)(=O)c1cn(C)c(C(=O)Nc2ccc(F)cc2C#N)c1Cl)C(F)(F)F` [Compound 273, 3-chloro-N-(2-cyano-4-fluoro-phenyl)-1-methyl-4-[[(1R)-2,2,2-trifluoro-1-methyl-ethyl]sulfamoyl]pyrrole-2-carboxamide], the EC50 stood at 420 nM in the series with HBV [1] and 700 nM in the series with HBV [2]. In series [3], the CC50 at 4 days was over 25 µM.
Consider `C[C@@H](NS(=O)(=O)c1cn(C)c(C(=O)Nc2ccc(F)c(C(F)(F)F)c2)c1Cl)C(F)(F)F` [Compound 274, 3-chloro-N-[4-fluoro-3-(trifluoromethyl)phenyl]-1-methyl-4-[[(1R)-2,2,2-trifluoro-1-methyl-ethyl]sulfamoyl]pyrrole-2-carboxamide], for which the EC50 in the series on HBV [1] is 20 nM; in the series on HBV [2], 40 nM. In series [3], this molecule showed a CC50 at 4 days of 19.4 µM.
Regarding `Cc1cccc(F)c1NC(=O)c1c(Cl)c(S(=O)(=O)N[C@H](C)C(F)(F)F)cn1C` [Compound 275, 3-chloro-N-(2-fluoro-6-methyl-phenyl)-1-methyl-4-[[(1R)-2,2,2-trifluoro-1-methyl-ethyl]sulfamoyl]pyrrole-2-carboxamide], the EC50 in the series on HBV [1] amounted to 600 nM; with HBV [2] it was 700 nM. In series [3], this molecule showed a CC50 at 4 days of over 25 µM.
For `C[C@@H](NS(=O)(=O)c1cn(C)c(C(=O)Nc2ccc(F)c(C#N)c2F)c1Cl)C(F)(F)F` [Compound 276, 3-chloro-N-(3-cyano-2,4-difluoro-phenyl)-1-methyl-4-[[(1R)-2,2,2-trifluoro-1-methyl-ethyl]sulfamoyl]pyrrole-2-carboxamide], the EC50 with HBV [1] and in the series on HBV [2] was 10 nM in each case. In addition, the CC50 at 4 days in series [3] is over 25 µM.
As to `C[C@@H](NS(=O)(=O)c1cn(C)c(C(=O)Nc2ccc(F)c(Cl)c2Cl)c1Cl)C(F)(F)F` [Compound 277, 3-chloro-N-(2,3-dichloro-4-fluoro-phenyl)-1-methyl-4-[[(1R)-2,2,2-trifluoro-1-methyl-ethyl]sulfamoyl]pyrrole-2-carboxamide], the concentration for a half-maximal effect (EC50) in the series on HBV [1] was determined as 30 nM; with HBV [2] it was 40 nM. Also, the CC50 at 4 days in series [3] was over 25 µM.
As to `C[C@@H](NS(=O)(=O)c1cn(C)c(C(=O)Nc2ccc(F)c(C(F)F)c2F)c1Cl)C(F)(F)F` [Compound 278, 3-chloro-N-[3-(difluoromethyl)-2,4-difluoro-phenyl]-1-methyl-4-[[(1R)-2,2,2-trifluoro-1-methyl-ethyl]sulfamoyl]pyrrole-2-carboxamide], the results for the EC50 in the series with HBV [1] and with HBV [2] were 6 nM and 10 nM, respectively. Further, the CC50 at 4 days in series [3] is over 25 µM.
Consider `C[C@@H](NS(=O)(=O)c1cn(C)c(C(=O)Nc2ccc(F)c(C(F)F)c2)c1Cl)C(F)(F)F` [Compound 279, 3-chloro-N-[3-(difluoromethyl)-4-fluoro-phenyl]-1-methyl-4-[[(1R)-2,2,2-trifluoro-1-methyl-ethyl]sulfamoyl]pyrrole-2-carboxamide], for which the EC50 in the series with HBV [1] is under 4 nM; in the series on HBV [2] it was 5 nM. This molecule displayed a 50% cytotoxic concentration (CC50) at 4 days in series [3] of over 25 µM.
Take `C[C@@H](NS(=O)(=O)c1cn(C)c(C(=O)Nc2cccc(Br)c2)c1F)C(F)(F)F` [Compound 280, N-(3-bromophenyl)-3-fluoro-1-methyl-4-[[(1R)-2,2,2-trifluoro-1-methyl-ethyl]sulfamoyl]pyrrole-2-carboxamide]: the concentration giving a half-maximal response (EC50) was 5 nM in the series with HBV [1] and 60 nM with HBV [2]. Moreover, the CC50 at 4 days in series [3] is over 25 µM.

As usually defined, the EC50 is the concentration at which the effect is half-maximal. What is called CC50 is the concentration at which the toxic effect on the cells reaches its halfway point. Low readings indicate harm at low concentration, high ones better tolerance by the cells.
